Measurements from US12441777B2 (NXERA PHARMA UK LIMITED, priority 2018, dated 2025).

Experiments:
Human GLP-1R = molecular target: T1, Human GLP-1R (Homo sapiens, UniProt P43220); assay: Functional antagonism of human GLP1 receptors, cAMP accumulation assay (HiRange cAMP kit, HEK cells infected with GLP-1R Bacmam, GLP-1(7-36) amide at EC80); type: cell-based; conditions: functional pKb from IC50 corrected by Cheng-Prusoff adaptation, GLP-1(7-36) at EC80
T1 construct: expressed in transfected cells; host or cells: HEK cells infected with GLP-1R BacMam
T1 sequence (P43220 24-463): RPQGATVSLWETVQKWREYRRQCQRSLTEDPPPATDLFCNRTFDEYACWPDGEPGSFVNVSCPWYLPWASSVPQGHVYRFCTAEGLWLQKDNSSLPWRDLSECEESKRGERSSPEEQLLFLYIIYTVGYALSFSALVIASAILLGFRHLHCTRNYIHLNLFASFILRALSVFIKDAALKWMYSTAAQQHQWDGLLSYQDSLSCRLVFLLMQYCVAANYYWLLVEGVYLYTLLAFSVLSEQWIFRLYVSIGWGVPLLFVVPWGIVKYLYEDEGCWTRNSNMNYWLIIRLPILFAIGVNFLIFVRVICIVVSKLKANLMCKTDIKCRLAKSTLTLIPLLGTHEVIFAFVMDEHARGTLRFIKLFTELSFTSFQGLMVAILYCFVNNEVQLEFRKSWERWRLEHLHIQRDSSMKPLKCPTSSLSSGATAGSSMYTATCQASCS
Experimental: The method followed a two-step protocol provided in the kit. In brief, HEK cells infected with 1% v/v GLP-1R Bacmam for 24 h were harvested using cell dissociation solution (Gibco), centrifuged and resuspended in the assay buffer (HBSS (Lonza) supplemented with 0.5 mM IBMX (Tocris)). DMSO stock of test compounds were serially diluted in the assay buffer and added to 96-well half area white plates (Costar). Final DMSO concentration in the assay was 0.3%. 20K cells per well were added to plates followed by 30 min incubation (humidified air (5% CO2), 37° C.). […] Intracellular accumulation of cAMP was stopped by addition of the HTRF detection reagents in lysis buffer, provided in the kit. Following 1-hour incubation at RT, plates were read on Pherastar FS (BMG Labtech, Inc.) Dotmatics Studies software was used for fitting data to a four-parameter concentration response curve. Calculated IC50 values were corrected for the agonist concentration using an adaptation of the Cheng-Prusoff equation to generate functional pKb values: […]

Mouse GLP-1R = molecular target: T2, Mouse GLP-1R (Mus musculus, UniProt O35659); assay: Functional antagonism of mouse GLP1 receptors, cAMP accumulation assay (HitHunter, CHO-K1 cells stably expressing mouse GLP-1R, Exendin-4 at EC80); type: cell-based; conditions: functional pKb from IC50 corrected by Cheng-Prusoff adaptation
T2 construct: expressed in transfected cells
T2 sequence (O35659 22-463): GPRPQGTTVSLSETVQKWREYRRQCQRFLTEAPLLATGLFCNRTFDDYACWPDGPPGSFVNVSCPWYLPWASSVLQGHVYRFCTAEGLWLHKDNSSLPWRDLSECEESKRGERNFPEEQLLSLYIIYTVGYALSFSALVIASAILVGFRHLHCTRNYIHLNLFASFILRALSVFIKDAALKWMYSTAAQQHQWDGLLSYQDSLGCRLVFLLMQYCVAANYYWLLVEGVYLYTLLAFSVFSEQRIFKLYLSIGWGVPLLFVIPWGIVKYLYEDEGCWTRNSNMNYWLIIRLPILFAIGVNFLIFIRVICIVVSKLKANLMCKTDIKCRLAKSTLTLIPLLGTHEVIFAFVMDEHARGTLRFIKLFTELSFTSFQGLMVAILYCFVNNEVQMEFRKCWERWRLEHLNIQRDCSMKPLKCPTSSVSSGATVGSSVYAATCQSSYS
Text: Final DMSO concentration in the assay was 1%. […] Calculated IC50 values were corrected for the agonist concentration using an adaptation of the Cheng-Prusoff equation to generate functional pKb values: […]

exendin(9-39)amide [Ex 9-39]
Human GLP-1R antagonist cAMP fpKb (Human GLP-1R): 7.8 | Mouse GLP-1R antagonist cAMP fpKb (Mouse GLP-1R): 7.2
